Source: ChEMBL document CHEMBL1201862, “PubChem BioAssay data set” (2004)
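Growth conditions: 96-well plates. Treatment: test compound, 48 hours, 5 concentrations. Analysis: linear interpolation between bracketing concentrations; unreached endpoints set to highest concentration. Here, GI50 denotes the concentration required for 50% inhibition of growth.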 Calls of active or inactive are those of the source. No stated cut-off is given here; in the data, active = GI50 up to about 1.1 µM and inactive = higher.

How the values were obtained:
Experiment in all cases: NCI anticancer screen, dose series, 48 h
K562 = test system: K562
IGROV-1 = test system: IGROV-1
EKVX = test system: EKVX
UACC-62 = test system: UACC-62
SNB-19 = test system: SNB-19
RPMI-8226 = test system: RPMI-8226
OVCAR-3 = test system: OVCAR-3
SK-OV-3 = test system: SK-OV-3
LOX IMVI = test system: LOX IMVI
ACHN = test system: ACHN
UACC-257 = test system: UACC-257
UO-31 = test system: UO-31
OVCAR-4 = test system: OVCAR-4
NCI-H226 = test system: NCI-H226
SF-295 = test system: SF-295
HOP-92 = test system: HOP-92
OVCAR-5 = test system: OVCAR-5
M14 = test system: M14
NCI-H522 = test system: NCI-H522
HL-60 = test system: HL-60

Measured: GI50

COc1cc(C2SC(=N)Nc3c2c(C)nn3C(=O)c2ccccc2O)cc(OC)c1OC (stereo not given)
inactive: K562 2.81 µM | IGROV-1 2.04 µM | EKVX > 10 µM | UACC-62 2.72 µM | SNB-19 8.71 µM | RPMI-8226 > 10 µM | OVCAR-3 > 10 µM | SK-OV-3 1.66 µM | LOX IMVI 5.16 µM | ACHN 4.32 µM | UACC-257 > 10 µM | UO-31 6.18 µM | OVCAR-4 4.89 µM | NCI-H226 > 10 µM | SF-295 3.51 µM | HOP-92 3.12 µM | OVCAR-5 > 10 µM | M14 5.92 µM

CC1(C)OCC2OC3([C@H](O)CCO)OC(C)(C)OC3C2O1 (stereo not given in full)
inactive: K562 > 100 µM | IGROV-1 > 100 µM | EKVX > 100 µM | UACC-62 > 100 µM | SNB-19 > 100 µM | RPMI-8226 > 100 µM | OVCAR-3 > 100 µM | LOX IMVI > 100 µM | ACHN > 100 µM | UACC-257 > 100 µM | UO-31 > 100 µM | OVCAR-4 > 100 µM | NCI-H226 > 100 µM | SF-295 > 100 µM | HOP-92 > 100 µM | OVCAR-5 > 100 µM | M14 > 100 µM

COc1ccc2c(c1)C(=O)C1CCC(=O)N1C2c1ccc2c(c1)OCO2 (stereo not given)
inactive: K562 3.36 µM | NCI-H522 5.04 µM | IGROV-1 16.5 µM | EKVX 20.3 µM | UACC-62 13.6 µM | SNB-19 13.8 µM | RPMI-8226 2.91 µM | OVCAR-3 3.64 µM | SK-OV-3 26.3 µM | LOX IMVI 9.59 µM | ACHN 12.1 µM | UACC-257 16.9 µM | UO-31 10.6 µM | OVCAR-4 25.4 µM | NCI-H226 15.7 µM | HL-60 2.79 µM | SF-295 15.9 µM | OVCAR-5 14.9 µM | M14 12.9 µM

CN(C(=O)Cc1ccccc1)n1cnn(CC(=O)OC(C)(C)C)c1=S
inactive: K562 > 10 µM | NCI-H522 > 10 µM | IGROV-1 > 10 µM | EKVX > 10 µM | UACC-62 > 10 µM | SNB-19 > 10 µM | RPMI-8226 > 10 µM | OVCAR-3 > 10 µM | SK-OV-3 > 10 µM | LOX IMVI > 10 µM | ACHN > 10 µM | UACC-257 > 10 µM | UO-31 > 10 µM | OVCAR-4 > 10 µM | SF-295 > 10 µM | HOP-92 > 10 µM | OVCAR-5 > 10 µM | M14 > 10 µM

Oc1ccc2ccccc2c1/C=N/Cc1c(O)ccc2ccccc12
inactive: K562 18.5 µM | NCI-H522 6.53 µM | IGROV-1 35.6 µM | EKVX 7.71 µM | UACC-62 45.1 µM | SNB-19 36.9 µM | RPMI-8226 12.6 µM | OVCAR-3 18.4 µM | SK-OV-3 > 100 µM | LOX IMVI 48.1 µM | ACHN 28.4 µM | UACC-257 81.5 µM | UO-31 28.7 µM | OVCAR-4 > 100 µM | SF-295 39.5 µM | HOP-92 26.4 µM | OVCAR-5 > 100 µM | M14 44.5 µM

Cn1c(-c2cccs2)cc(-c2ccsc2)c1-c1ccsc1
inactive: K562 > 100 µM | NCI-H522 > 100 µM | IGROV-1 > 100 µM | EKVX > 100 µM | UACC-62 > 100 µM | SNB-19 > 100 µM | OVCAR-3 > 100 µM | SK-OV-3 > 100 µM | ACHN > 100 µM | UACC-257 > 100 µM | UO-31 > 100 µM | OVCAR-4 > 100 µM | NCI-H226 > 100 µM | SF-295 > 100 µM | HOP-92 > 100 µM | OVCAR-5 > 100 µM | M14 > 100 µM

CC(NC(=O)C(N)CC(=O)O)NC(=O)N(C)C(C)(C)C (stereo not given)
inactive: K562 > 100 µM | NCI-H522 > 100 µM | IGROV-1 > 100 µM | EKVX > 100 µM | UACC-62 > 100 µM | SNB-19 > 100 µM | RPMI-8226 > 100 µM | OVCAR-3 > 100 µM | SK-OV-3 > 100 µM | LOX IMVI > 100 µM | ACHN > 100 µM | UACC-257 > 100 µM | UO-31 > 100 µM | OVCAR-4 > 100 µM | NCI-H226 > 100 µM | HL-60 > 100 µM | SF-295 > 100 µM | OVCAR-5 > 100 µM | M14 > 100 µM

COC(=O)/C=C\[C@@H]1[C@H](C)N1S(=O)(=O)c1ccc(C)cc1 (stereo not given in full)
inactive: K562 > 100 µM | NCI-H522 > 100 µM | IGROV-1 > 100 µM | UACC-62 > 100 µM | SNB-19 > 100 µM | RPMI-8226 > 100 µM | OVCAR-3 > 100 µM | SK-OV-3 > 100 µM | LOX IMVI > 100 µM | ACHN > 100 µM | UACC-257 > 100 µM | OVCAR-4 > 100 µM | NCI-H226 > 100 µM | HL-60 > 100 µM | SF-295 > 100 µM | OVCAR-5 > 100 µM | M14 > 100 µM

Cc1nn(CNc2ccc(F)c(Cl)c2)c(=S)n1/N=C/c1ccc(-c2ccc(Cl)cc2Cl)o1
inactive: K562 1.49 µM | NCI-H522 14.4 µM | IGROV-1 16.7 µM | EKVX 16.4 µM | RPMI-8226 14.8 µM | OVCAR-3 17.3 µM | SK-OV-3 16.9 µM | LOX IMVI 16.6 µM | ACHN 16.6 µM | UACC-257 22.3 µM | UO-31 16.7 µM | OVCAR-4 20.1 µM | NCI-H226 17.2 µM | HL-60 1.44 µM | SF-295 15.7 µM | OVCAR-5 19.1 µM | M14 18.7 µM

CC[S+]([O-])C(=O)N(O)c1ccc(Cl)cc1 (stereo not given)
inactive: K562 16.2 µM | EKVX 26.7 µM | UACC-62 8.55 µM | SNB-19 60.7 µM | RPMI-8226 1.24 µM | OVCAR-3 31.6 µM | SK-OV-3 > 100 µM | LOX IMVI 11.7 µM | ACHN 11.1 µM | UACC-257 23.2 µM | UO-31 14.5 µM | OVCAR-4 38.3 µM | NCI-H226 84.1 µM | SF-295 85.7 µM | HOP-92 29.9 µM | OVCAR-5 17.7 µM | M14 12.8 µM

Cc1sc(Nc2ccc(Nc3nc(-c4ccccc4)c(C)s3)cc2)nc1-c1ccccc1
inactive: K562 18.6 µM | NCI-H522 35.4 µM | IGROV-1 > 100 µM | EKVX > 100 µM | UACC-62 54.3 µM | SNB-19 > 100 µM | OVCAR-3 > 100 µM | SK-OV-3 > 100 µM | LOX IMVI 40.6 µM | ACHN 36.5 µM | UACC-257 43.1 µM | UO-31 89.7 µM | OVCAR-4 > 100 µM | NCI-H226 63.1 µM | SF-295 95.9 µM | HOP-92 > 100 µM | OVCAR-5 > 100 µM | M14 61.2 µM
